The values that follow come from ChEMBL document CHEMBL1154394, “The preparation of 2,6-disubstituted pyridinyl phosphine oxides as novel anti-cancer agents” (Bioorg Med Chem Lett, 2009).

Calls of active or inactive are those of the source. The calls are words filed in the database; no cut-off is given here.

Assay [1] has as its system MDA-MB-231. Description: Cytotoxicity against human MDA-MB-231 cells after 48 hrs by one step ATP lite assay. Type of assay: functional, cell-based.
Assay [2] concerns SK-HEP1. The assay can be described thus: Cytotoxicity against human SKHEP1 cells after 48 hrs by one step ATP lite assay. It is filed as functional, cell-based.
A short description of assay [3]: Cytotoxicity against non malignant human hematological disorder bone marrow cells after 48 hrs by one step ATP lite assay. It is filed as cell-based. The note with it: Bone marrow cell.
The subject of assay [4] is MDA-MB-231. Description: Induction of apoptosis in human MDA-MB-231 cells assessed as morphological changes at 60 uM after 48 hrs. It is filed as functional, cell-based.
Assay [5] relates to SK-HEP1. The assay can be described thus: Induction of apoptosis in human SKHEP1 cells assessed as morphological changes at 60 uM after 48 hrs. It is filed as functional, cell-based.
The subject of assay [6] is MDA-MB-231. The assay can be described thus: Growth inhibition of human MDA-MB-231 cells at 70 uM after 48 hrs by one step ATP lite assay in presence of z-VAD-fmk. It is filed as functional, cell-based.
Assay [7] has as its system SK-HEP1. Description: Growth inhibition of human SKHEP1 cells at 70 uM after 48 hrs by one step ATP lite assay in presence of z-VAD-fmk. Type of assay: functional, cell-based.
Assay [8] concerns MDA-MB-231. Description: Growth inhibition of human MDA-MB-231 cells at 100 uM after 48 hrs by one step ATP lite assay. To be noted: MDA-MB-231, 48 h, read-out: GI. It is filed as functional.
The subject of assay [9] is SK-HEP1. Description: Growth inhibition of human SKHEP1 cells at 100 uM after 48 hrs by one step ATP lite assay. Type of assay: functional. The arrangement: scale not given: the % may be the effect or the level left.

As for `COc1nc(OC)c(Br)c(P(=O)(c2ccccc2)c2ccccc2)c1Br`, the IC50 was found to be 47.5 µM in the assay on MDA-MB-231 [1] (MDA-MB-231, 48 h); 38.5 µM in the assay on SK-HEP1 [2] (SK-HEP1, 48 h); 54.2 µM in [3]. For the same molecule, the outcome with MDA-MB-231 [4] and in the assay with SK-HEP1 [5] was Active. Besides, the result with MDA-MB-231 [6] and in the assay on SK-HEP1 [7] was inactive.

Turning to `COc1cc(P(=O)(c2ccccc2)c2ccccc2)cc(OC)n1`, the outcome in the assay with MDA-MB-231 [1] and with SK-HEP1 [2] was Active.

Regarding `COc1cc(P(=O)(c2ccccc2)c2ccccc2)c(Br)c(OC)n1`, the inhibition of growth at 100 µM with MDA-MB-231 [8] is 30%. Also, in the assay on SK-HEP1 [9], the Activity is 30%. For the same molecule, the result with MDA-MB-231 [4] and in the assay with SK-HEP1 [5] was Active.

For orientation: IC50 means the concentration that inhibits the measured activity by half.
